Laboratory results published in paper PMC12175177 (Frontiers in Pharmacology, 2025).
≈ marks a conversion by molar mass, not a printed value. Structures can show the parent of a compound that is named as a salt.

How the values were obtained:
[1] = system: Vero-E6 cells; assay: Cytotoxicity (MTT / CellTiter-Glo cell viability) in Vero-E6 cells; assay type: cell-based, African green monkey; settings: at MNCC, 48 h exposure, normalized to untreated control, mean 2x
From the text: (§1) An 80% viability threshold was established for selecting the compounds for further analysis.

[2] = system: Calu-3 cells; assay: Cytotoxicity (MTT / CellTiter-Glo cell viability) in Calu-3 cells; assay type: cell-based, human; settings: at MNCC, 48 h exposure, normalized to untreated control, mean 2x
From the text: as §1

[3] = Cytotoxicity (MTT / CellTiter-Glo cell viability) in Vero-E6 cells; assay type: cell-based, African green monkey; settings: African green monkey, Vero-E6 cells, at MNCC, 48 h exposure, normalized to untreated control; mean 2x
From the text: as §1

[4] = Cytotoxicity (MTT / CellTiter-Glo cell viability) in Calu-3 cells; assay type: cell-based, human; settings: human, Calu-3 cells, at MNCC, 48 h exposure, normalized to untreated control; mean 2x
From the text: as §1

[5] = system: Vero-E6 and Calu-3 cells; assay: Maximum non-cytotoxic concentration (MNCC) determination; assay type: cell-based; settings: 48 h
From the text: as §1

[6] = CC50 determination in Vero E6 cells; settings: African green monkey
From the text: (§2) DMSO was used as a negative control. To calculate the IC50 and CC50, a 4-parameter nonlinear regression sigmoidal concentration-response function was undertaken using the Prism 10 software package (GraphPad, Boston, MA, USA).

[7] = doses commonly administered in human treatments; ref Byakika-Kibwika et al., 2012 (ASi); Nicol et al., 2020 (CQ, HCQ); Gonzalez Canga et al., 2008 (IVM); Bhatia et al., 1986 (PQ); cited from earlier work
[8] = system: Vero E6 cells; assay: CC50 determination in Vero E6 cells; settings: Vero E6
From the text: as §2

[9] = system: SARS-CoV-2; set-up: method as in Gendrot et al., 2020c; settings: other studies; ref Gendrot et al., 2020c; cited from earlier work
[10] = CC50 (Figure 4 curve), Vero-E6, sigmoidal 4PL fit

Compound | % viability Vero E6 [1] [%] | % viability Calu-3 [2] [%] | viability at 48 h [3] [%] | viability at 48 h [4] [%] | MNCC Concentration [5] [µM] | other results
CCN(CCO)CCCC(C)Nc1ccnc2cc(Cl)ccc12 (stereo not shown) [Hydroxychloroquine Minsa (HCQ-m), Hydroxychloroquine] | 72 | 84 |  |  |  | % viability Vero E6 ([1]; listed as HCQ-m): < 80%
C=C[C@H]1C[N@@]2CC[C@H]1C[C@H]2[C@H](O)c1ccnc2ccc(OC)cc12 [Quinine Sulfate (QN), Quinine Sulfate] | 74 |  | < 80 | 90 | 5 | 
C[C@H]1[C@H](OC(=O)CCC(=O)O)O[C@@H]2O[C@@]3(C)CC[C@H]4[C@H](C)CC[C@@H]1[C@@]24OO3 [Artesunic acid (AS), Artesunic acid] | 74 | 74 | < 80 | < 80 | 125 | 
CN(C)c1ccc2nc3ccc(=[N+](C)C)cc-3sc2c1 [Methylene Blue Injection (MBi), Methylene Blue] |  |  | 84 | 89 | 5 | 
Ferroquine [Ferroquine (FQ)] | 75 | 63 |  |  | 5 | % viability Vero E6 ([1]; listed as FQ): < 80%
CN(C)C(=O)COC(=O)Cc1ccc(OC(=O)c2ccc(NC(=N)N)cc2)cc1 [Camostat mesylate (CAM), Camostat mesylate] |  |  | 118 | 112 | 50 | 
CCc1nc(N)nc(N)c1-c1ccc(Cl)cc1 [Pyrimethamina (PYR), Pyrimethamina] |  |  | 94 | 92 | 125 | 
CCN(CC)Cc1cc(Nc2ccnc3cc(Cl)ccc23)ccc1O [Amodiaquine (AQ), Amodiaquine] |  |  | 84 | 82 | 20 | 
Ivermectin [Ivermectin Liquida (IVM-li)] | 85 | 87 |  |  | 30 | 
CCCCN(CCCC)CC(O)c1cc(Cl)cc2c1-c1ccc(Cl)cc1/C2=C/c1ccc(Cl)cc1 (stereo not shown) [Lumefantrine (LUM), Lumefantrine] |  |  | 86 | 86 | 250 | 
CC[C@H]1OC(=O)[C@H](C)[C@@H](O[C@H]2C[C@@](C)(OC)[C@@H](O)[C@H](C)O2)[C@H](C)[C@@H](O[C@@H]2O[C@H](C)C[C@H](N(C)C)[C@H]2O)[C@](C)(O)C[C@@H](C)CN(C)[C@H](C)[C@@H](O)[C@]1(C)O [Azithromycin dehydrate (AZH), Azithromycin dehydrate] |  |  | 92 | 87 | 30 | 
CN1CCN(CCCN2c3ccccc3Sc3ccc(Cl)cc32)CC1 [Prochlorperazine (PCPZ), Prochlorperazine] |  | 77 | 80 | < 80 | 30 | 
COc1cc(NC(C)CCCN)c2ncccc2c1 (stereo not shown) [Primaquine Phosphate (PQ), Primaquine Phosphate] |  |  | 106 | 87 | 15 | CC50 at 72 h ([6]; CC50% in µg/mL, Vero E6): 5.5 µg/mL; CC50 at 72 h ([6]; CC50%, Vero E6): 21.2 µM; CC50 at 72 h [6, 10]: 21.2 µM; Cmax (maximum plasma concentration) [7]: 50 ng/mL
COc1ccc2nc3cc(Cl)ccc3c(Nc3cc(CN4CCCC4)c(O)c(CN4CCCC4)c3)c2n1 [Pyranoridine (PNO), Pyranoridine] | 91 | 78 |  |  | 5 | % viability Calu-3 ([2]; listed as PNO): < 80%
OC(c1cc(C(F)(F)F)nc2c(C(F)(F)F)cccc12)C1CCCCN1 (stereo not shown) [Mefloquine (MQ), Mefloquine] |  |  | 105 | 82 | 30 | 
COc1c(C)c2c(c(O)c1C/C=C(\C)CCC(=O)O)C(=O)OC2 [Mycophenolic acid (MYC), Mycophenolic acid] |  |  | 107 | 109 | 5 | 
CCN(CCO)CCCC(C)Nc1ccnc2cc(Cl)ccc12 (stereo not shown) [Hydroxychloroquine sulfate (HCQ), Hydroxychloroquine sulfate] | 47 | 64 |  | < 80 |  | CC50 at 72 h ([6]; CC50% in µg/mL, Vero E6): 23.2 µg/mL; CC50 at 72 h ([6]; CC50%, Vero E6): 72.1 µM; CC50 at 72 h [6, 10]: 72.1 µM; % viability Vero E6 ([1]; listed as HCQ sulfate): < 80%; Cmax (maximum plasma concentration) [7]: 130 ng/mL
CC[C@H](C)[C@H]1O[C@]2(CC[C@@H]1C)C[C@@H]1C[C@@H](C/C=C(\C)[C@@H](O[C@H]3C[C@H](OC)[C@@H](O[C@H]4C[C@H](OC)[C@@H](O)[C@H](C)O4)[C@H](C)O3)[C@@H](C)/C=C/C=C3\CO[C@@H]4[C@H](O)C(C)=C[C@@H](C(=O)O1)[C@]34O)O2 [Ivermectin (IVM), Ivermectin] | 93 | 87 |  |  | 8 | CC50 [8]: 74 µM; CC50% [8]: 64.8 µg/mL (≈ 74 µM); Cmax (maximum plasma concentration) [7]: 50 ng/mL
C[C@H]1[C@@H](OCc2ccc(C(=O)O)cc2)O[C@@H]2O[C@@]3(C)CC[C@H]4[C@H](C)CC[C@@H]1[C@@]24OO3 [Artelinic Acid (AA), Artelinic Acid] | 100 | 92 |  |  | 30 | 
C[C@H]1[C@H](N2CCS(=O)(=O)CC2)O[C@@H]2O[C@@]3(C)CC[C@H]4[C@H](C)CC[C@@H]1[C@@]24OO3 [Artemisone (ASO), Artemisone] |  |  | 92 | 93 | 125 | 
Ivermectin [Ivermectin Farmacia (IVM-f)] | 101 | 67 |  |  | 75 | % viability Calu-3 ([2]; listed as IVM-f): < 80%
C[C@H]1[C@H](OC(=O)CCC(=O)O)O[C@@H]2O[C@@]3(C)CC[C@H]4[C@H](C)CC[C@@H]1[C@@]24OO3 [Artesunate injection (ASi), Artesunate] | 81 | 82 |  |  | 50 | CC50 at 72 h ([6]; CC50% in µg/mL, Vero E6): 27 µg/mL; CC50 at 72 h ([6]; CC50%, Vero E6): 70.3 µM; Cmax (maximum plasma concentration) [7]: 3300 ng/mL; MNCC Concentration ([5]; listed as ASi): 50 µM
NC(=O)c1ncn([C@@H]2O[C@H](CO)[C@@H](O)[C@H]2O)n1 [Ribavirin (RIB), Ribavirin] |  |  | 104 | 91 | 250 | 
CCN(CC)CCCC(C)Nc1ccnc2cc(Cl)ccc12 (stereo not shown) [Chloroquine diphosphate (CQ), Chloroquine diphosphate] |  |  | 103 | 105 | 5 | CC50 at 72 h ([6]; CC50% in µg/mL, Vero E6): 17 µg/mL; CC50 at 72 h ([6]; CC50%, Vero E6): 53.2 µM; CC50 at 72 h [6, 10]: 57.1 µM; Cmax (maximum plasma concentration) [7]: 2700 ng/mL; EC50 [9]: 2.1 µM; EC90 [9]: 3.8 µM
O=C(Nc1cccc(C2=NCCN2)c1)Nc1cccc(C2=NCCN2)c1 [Imidocarb (IMI), Imidocarb] |  |  | 92 | 106 |  | 
CCO[C@H]1O[C@@H]2O[C@@]3(C)CC[C@H]4[C@H](C)CC[C@@H]([C@H]1C)[C@@]24OO3 [Arteether (AE), Arteether] |  |  | 104 | 97 | 125 | 
